The text below walks through data of ChEMBL document CHEMBL5608182, “Synthesis and evaluation of neuroactive steroids with novel pharmacophore at C-21 let identify a compound with advantageous PK profile and higher EC50 and Emax as PAM on GABAA receptor” (Eur J Med Chem, 2024).

What all share (type): cell-based
For assay [1], the target named is Gamma-aminobutyric acid receptor subunit alpha-4/beta3/delta (Homo sapiens, UniProt O14764+P28472+P48169). Briefly: Positive allosteric modulation of extrasynaptic alpha4beta3delta GABA-A receptor (unknown origin) transfected in CHO cells assessed as potentiation of GABA-induced peak current amplitude at -80 mV holding potential preincubated for 30 secs followed by GABA stimulation for 2 secs by manual patch assay.
Sequence of Gamma-aminobutyric acid receptor subunit alpha-4/beta3/delta (P28472 whole entry): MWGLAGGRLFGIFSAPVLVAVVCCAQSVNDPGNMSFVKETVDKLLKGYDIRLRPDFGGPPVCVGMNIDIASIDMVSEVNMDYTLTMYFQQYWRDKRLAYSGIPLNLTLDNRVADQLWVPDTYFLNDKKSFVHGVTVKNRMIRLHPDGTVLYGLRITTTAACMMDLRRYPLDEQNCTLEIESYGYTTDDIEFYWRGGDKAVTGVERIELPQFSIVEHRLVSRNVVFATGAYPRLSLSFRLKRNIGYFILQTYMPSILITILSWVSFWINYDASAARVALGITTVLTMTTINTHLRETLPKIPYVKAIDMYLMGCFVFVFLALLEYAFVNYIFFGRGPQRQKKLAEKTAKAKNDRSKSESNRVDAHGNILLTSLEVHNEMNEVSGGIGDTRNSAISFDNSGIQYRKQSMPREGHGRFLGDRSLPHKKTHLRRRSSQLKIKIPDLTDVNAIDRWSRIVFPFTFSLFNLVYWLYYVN
Sequence of Gamma-aminobutyric acid receptor subunit alpha-4/beta3/delta (P48169 whole entry): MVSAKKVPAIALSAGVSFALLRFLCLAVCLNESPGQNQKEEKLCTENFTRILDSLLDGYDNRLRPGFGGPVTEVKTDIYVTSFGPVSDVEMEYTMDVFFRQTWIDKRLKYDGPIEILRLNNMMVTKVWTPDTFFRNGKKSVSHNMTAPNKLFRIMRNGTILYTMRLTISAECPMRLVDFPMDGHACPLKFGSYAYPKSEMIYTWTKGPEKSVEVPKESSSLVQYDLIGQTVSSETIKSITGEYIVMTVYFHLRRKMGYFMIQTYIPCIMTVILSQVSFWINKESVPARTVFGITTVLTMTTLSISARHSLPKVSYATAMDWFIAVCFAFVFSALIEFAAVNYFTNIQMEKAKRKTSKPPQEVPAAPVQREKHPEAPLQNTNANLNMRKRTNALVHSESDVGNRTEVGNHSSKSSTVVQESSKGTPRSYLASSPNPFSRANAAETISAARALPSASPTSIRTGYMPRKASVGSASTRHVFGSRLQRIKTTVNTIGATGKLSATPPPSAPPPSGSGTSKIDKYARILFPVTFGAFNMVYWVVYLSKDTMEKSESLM
Sequence of Gamma-aminobutyric acid receptor subunit alpha-4/beta3/delta (O14764 whole entry): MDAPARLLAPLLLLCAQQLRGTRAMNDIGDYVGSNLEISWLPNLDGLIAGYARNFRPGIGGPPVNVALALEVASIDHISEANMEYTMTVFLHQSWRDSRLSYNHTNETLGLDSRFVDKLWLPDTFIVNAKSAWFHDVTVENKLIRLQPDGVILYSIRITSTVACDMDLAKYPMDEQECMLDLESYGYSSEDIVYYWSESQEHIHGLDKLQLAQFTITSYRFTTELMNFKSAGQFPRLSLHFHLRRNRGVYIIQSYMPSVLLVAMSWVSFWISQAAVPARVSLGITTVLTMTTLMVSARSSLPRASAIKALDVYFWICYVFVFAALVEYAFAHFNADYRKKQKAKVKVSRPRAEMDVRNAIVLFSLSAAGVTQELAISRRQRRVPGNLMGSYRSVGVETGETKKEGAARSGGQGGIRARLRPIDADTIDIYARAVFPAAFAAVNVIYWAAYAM

Assay [2] deals with T1, GABA-A receptor; alpha-1/beta-2/gamma-2 (Homo sapiens, UniProt P14867+P18507+P47870).
T1 sequence (P14867 whole entry): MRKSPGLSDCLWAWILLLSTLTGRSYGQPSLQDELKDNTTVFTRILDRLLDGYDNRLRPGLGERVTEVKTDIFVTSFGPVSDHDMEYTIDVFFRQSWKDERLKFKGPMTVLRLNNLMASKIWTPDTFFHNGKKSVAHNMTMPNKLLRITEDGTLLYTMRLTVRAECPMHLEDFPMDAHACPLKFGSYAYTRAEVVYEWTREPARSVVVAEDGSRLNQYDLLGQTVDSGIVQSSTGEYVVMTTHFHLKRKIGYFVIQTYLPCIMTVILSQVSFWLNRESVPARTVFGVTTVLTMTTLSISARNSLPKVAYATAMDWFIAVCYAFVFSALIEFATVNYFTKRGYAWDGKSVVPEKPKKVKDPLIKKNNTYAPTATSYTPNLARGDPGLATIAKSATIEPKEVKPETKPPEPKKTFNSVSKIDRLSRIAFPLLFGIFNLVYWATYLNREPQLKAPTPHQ
T1 sequence (P47870 whole entry): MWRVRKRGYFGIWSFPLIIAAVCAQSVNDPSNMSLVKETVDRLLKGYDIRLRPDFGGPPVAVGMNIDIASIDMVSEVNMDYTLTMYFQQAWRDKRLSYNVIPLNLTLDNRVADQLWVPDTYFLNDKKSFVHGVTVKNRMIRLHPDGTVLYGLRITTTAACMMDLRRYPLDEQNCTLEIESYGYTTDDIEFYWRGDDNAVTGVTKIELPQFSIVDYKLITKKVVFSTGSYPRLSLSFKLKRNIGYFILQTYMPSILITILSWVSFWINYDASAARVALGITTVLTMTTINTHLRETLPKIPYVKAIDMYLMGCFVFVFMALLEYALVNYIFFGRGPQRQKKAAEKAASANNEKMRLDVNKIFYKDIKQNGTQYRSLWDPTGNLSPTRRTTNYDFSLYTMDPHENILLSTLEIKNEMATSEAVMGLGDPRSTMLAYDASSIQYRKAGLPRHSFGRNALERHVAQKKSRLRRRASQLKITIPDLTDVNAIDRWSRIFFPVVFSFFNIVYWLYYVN
T1 sequence (P18507 whole entry): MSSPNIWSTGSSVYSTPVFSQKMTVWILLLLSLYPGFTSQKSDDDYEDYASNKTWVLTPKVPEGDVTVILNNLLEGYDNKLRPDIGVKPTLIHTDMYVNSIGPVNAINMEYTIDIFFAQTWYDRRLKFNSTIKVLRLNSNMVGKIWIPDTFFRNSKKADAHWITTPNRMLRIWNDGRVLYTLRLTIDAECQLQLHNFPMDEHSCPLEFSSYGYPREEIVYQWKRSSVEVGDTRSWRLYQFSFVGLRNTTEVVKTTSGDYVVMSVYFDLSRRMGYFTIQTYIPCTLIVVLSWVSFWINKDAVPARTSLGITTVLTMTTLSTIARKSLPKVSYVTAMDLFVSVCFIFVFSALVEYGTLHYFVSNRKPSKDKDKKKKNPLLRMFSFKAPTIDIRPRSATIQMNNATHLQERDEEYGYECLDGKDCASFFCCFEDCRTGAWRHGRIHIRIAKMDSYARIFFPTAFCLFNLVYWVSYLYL
Briefly: Positive allosteric modulation of synaptic alpha1beta2gamma2 GABA-A receptor (unknown origin) transfected in LTK cells assessed as potentiation of GABA-induced peak current amplitude at -80 mV holding potential preincubated for 30 secs followed by GABA stimulation for 2 secs by Q-patch assay.

Assay [3] addresses Gamma-aminobutyric acid receptor subunit alpha-4/beta3/delta (Homo sapiens) (UniProt P28472+P48169+O14764). Briefly: Positive allosteric modulation of extrasynaptic alpha4beta3delta GABA-A receptor (unknown origin) transfected in CHO cells assessed as potentiation of GABA-induced peak current amplitude by measuring maximal efficacy at 0.01 to 10 uM at -80 mV holding potential preincubated for 30 secs followed by GABA stimulation for 2 secs by manual patch assay relative to control. Particulars: filed as positive allosteric modulator, dose 0.01-10 µM, time 32.0 sec.

Assay [4] concerns the target GABA-A receptor; alpha-1/beta-2/gamma-2 (Homo sapiens) (UniProt P14867+P47870+P18507). Briefly: Positive allosteric modulation of synaptic alpha1beta2gamma2 GABA-A receptor (unknown origin) transfected in LTK cells assessed as potentiation of GABA-induced peak current amplitude by measuring maximal efficacy at 0.01 to 10 uM at -80 mV holding potential preincubated for 30 secs followed by GABA stimulation for 2 secs by Q-patch assay relative to control. The note with it: filed as positive allosteric modulator, dose 0.01-10 µM, time 32.0 sec.

What is called EC50 is the concentration that produces a half-maximal response. For orientation: Emax means the size of the effect at its maximum, as opposed to the concentration needed. Take `C[C@@]1(O)CC[C@H]2[C@H](CC[C@@H]3[C@@H]2CC[C@]2(C)[C@@H](C(=O)Cn4cnn(-c5cccc(OC(F)(F)F)c5)c4=O)CC[C@@H]32)C1`: the values for the EC50 in assay [1] and in assay [2] were 41 nM and 182 nM, respectively. Further, the values for the maximal response (Emax) in assay [3] and in assay [4] were 1580% and 629%, respectively.

Take `C[C@@]1(O)CC[C@H]2[C@H](CC[C@@H]3[C@@H]2CC[C@]2(C)[C@@H](C(=O)Cn4cnn(-c5cccc(F)n5)c4=O)CC[C@@H]32)C1`: the results for the EC50 in assay [1] and in assay [2] were 360 nM and 368 nM, respectively. The values for the Emax in assay [3] and in assay [4] were 966% and 724%, respectively.

On to `C[C@@]1(O)CC[C@H]2[C@H](CC[C@@H]3[C@@H]2CC[C@]2(C)[C@@H](C(=O)Cn4cnn(-c5cc(F)ccc5F)c4=O)CC[C@@H]32)C1`, for which the figures for the half-maximal effective concentration (EC50) in assay [1] and in assay [2] were 79 nM and 340 nM, respectively. For the same compound, the Emax in assay [3] was 743%; in assay [4], 347%.

On to `C[C@@]1(O)CC[C@H]2[C@H](CC[C@@H]3[C@@H]2CC[C@]2(C)[C@@H](C(=O)Cn4cnn(-c5cc(F)cc(F)c5)c4=O)CC[C@@H]32)C1`, for which the EC50 in assay [1] came out at 35 nM; in assay [2] it was 154 nM. Also, the Emax in assay [3] came out at 441%; in assay [4], 1040%.

As for `C[C@@]1(O)CC[C@H]2[C@H](CC[C@@H]3[C@@H]2CC[C@]2(C)[C@@H](C(=O)Cn4cnn(-c5cc(F)ccn5)c4=O)CC[C@@H]32)C1`, the EC50 stood at 68 nM in assay [1] and 340 nM in assay [2]. Also, the Emax in assay [3] was 720%; in assay [4], 446%.

Take `C[C@@]1(O)CC[C@H]2[C@H](CC[C@@H]3[C@@H]2CC[C@]2(C)[C@@H](C(=O)Cn4cnn(-c5nccs5)c4=O)CC[C@@H]32)C1`: the EC50 stood at 126 nM in assay [1] and 330 nM in assay [2]. In addition, the Emax in assay [3] is 633%; in assay [4], 763%.

For the compound `C[C@@]1(O)CC[C@H]2[C@H](CC[C@@H]3[C@@H]2CC[C@]2(C)[C@@H](C(=O)Cn4cnn(-c5cccc(F)c5F)c4=O)CC[C@@H]32)C1`, the EC50 in assay [1] came out at 42 nM; in assay [2], 126 nM. Moreover, the Emax amounted to 526% in assay [3] and 445% in assay [4].

As to `CCn1ncn(CC(=O)[C@H]2CC[C@H]3[C@@H]4CC[C@@H]5C[C@](C)(O)CC[C@@H]5[C@H]4CC[C@]23C)c1=O`, the values for the EC50 in assay [1] and in assay [2] were 270 nM and 190 nM, respectively. For the same compound, the figures for the Emax in assay [3] and in assay [4] were 526% and 632%, respectively.

Consider `C[C@@]1(O)CC[C@H]2[C@H](CC[C@@H]3[C@@H]2CC[C@]2(C)[C@@H](C(=O)Cn4cnn(-c5ccc6c(c5)OCO6)c4=O)CC[C@@H]32)C1`, for which the EC50 in assay [1] is 266 nM; in assay [2], 139 nM. Further, the Emax in assay [3] amounted to 1200%; in assay [4], 387%.

Regarding `C[C@@]1(O)CC[C@H]2[C@H](CC[C@@H]3[C@@H]2CC[C@]2(C)[C@@H](C(=O)Cn4cnn(-c5cccc(N)c5)c4=O)CC[C@@H]32)C1`, the EC50 in assay [1] worked out at 213 nM; in assay [2] it was 349 nM. The Emax is 1070% in assay [3] and 786% in assay [4].

`CC(C)(C)n1ncn(CC(=O)[C@H]2CC[C@H]3[C@@H]4CC[C@@H]5C[C@](C)(O)CC[C@@H]5[C@H]4CC[C@]23C)c1=O`: the EC50 in assay [1] was 268 nM; in assay [2], 310 nM. The maximum response (Emax) in assay [3] turned out to be 749%; in assay [4] it was 806%.

Consider `C[C@@]1(O)CC[C@H]2[C@H](CC[C@@H]3[C@@H]2CC[C@]2(C)[C@@H](C(=O)Cn4cnn(-c5ccc(F)cc5F)c4=O)CC[C@@H]32)C1`, for which the EC50 was 89 nM in assay [1] and 784 nM in assay [2]. The Emax is 542% in assay [3] and 692% in assay [4].

`C[C@@]1(O)CC[C@H]2[C@H](CC[C@@H]3[C@@H]2CC[C@]2(C)[C@@H](C(=O)Cn4cnn(-c5ccc(F)cc5)c4=O)CC[C@@H]32)C1`: the EC50 in assay [1] is 170 nM; in assay [2], 220 nM. Further, the Emax in assay [3] stood at 410%; in assay [4], 390%.

Regarding `C[C@@]1(O)CC[C@H]2[C@H](CC[C@@H]3[C@@H]2CC[C@]2(C)[C@@H](C(=O)Cn4cnn(C5CCCC5)c4=O)CC[C@@H]32)C1`, the values for the EC50 in assay [1] and in assay [2] were 203 nM and 192 nM, respectively. For the same compound, the maximum response (Emax) worked out at 830% in assay [3] and 691% in assay [4].

Turning to `C[C@@]1(O)CC[C@H]2[C@H](CC[C@@H]3[C@@H]2CC[C@]2(C)[C@@H](C(=O)Cn4cnn(-c5cncc(F)c5)c4=O)CC[C@@H]32)C1`, the EC50 in assay [1] was 150 nM; in assay [2], 145 nM. Also, the Emax in assay [3] is 601%; in assay [4], 618%.

On to `C[C@@]1(O)CC[C@H]2[C@H](CC[C@@H]3[C@@H]2CC[C@]2(C)[C@@H](C(=O)Cn4cnn(-c5ccccc5F)c4=O)CC[C@@H]32)C1`, for which the EC50 turned out to be 107 nM in assay [1] and 171 nM in assay [2]. Moreover, the Emax in assay [3] worked out at 541%; in assay [4], 710%.

In the case of `C[C@@]1(O)CC[C@H]2[C@H](CC[C@@H]3[C@@H]2CC[C@]2(C)[C@@H](C(=O)Cn4cnn(C5CCCCC5)c4=O)CC[C@@H]32)C1`, the figures for the EC50 in assay [1] and in assay [2] were 237 nM and 585 nM, respectively. For the same compound, the results for the Emax in assay [3] and in assay [4] were 685% and 873%, respectively.

For `C[C@@]1(O)CC[C@H]2[C@H](CC[C@@H]3[C@@H]2CC[C@]2(C)[C@@H](C(=O)Cn4cnn(-c5ccccc5)c4=O)CC[C@@H]32)C1`, the EC50 in assay [1] is 29 nM; in assay [2], 90 nM. Further, the Emax in assay [3] and in assay [4] was 430% in each case.

For the compound `C[C@@]1(O)CC[C@H]2[C@H](CC[C@@H]3[C@@H]2CC[C@]2(C)[C@@H](C(=O)Cn4cnn(CC(F)(F)F)c4=O)CC[C@@H]32)C1`, the EC50 is 1240 nM in assay [1] and 548 nM in assay [2]. The Emax was 1280% in assay [3] and 378% in assay [4].

As to `Cn1ncn(CC(=O)[C@H]2CC[C@H]3[C@@H]4CC[C@@H]5C[C@](C)(O)CC[C@@H]5[C@H]4CC[C@]23C)c1=O`, the EC50 in assay [1] amounted to 305 nM; in assay [2], 444 nM. The Emax turned out to be 497% in assay [3] and 242% in assay [4].

Consider `C[C@@]1(O)CC[C@H]2[C@H](CC[C@@H]3[C@@H]2CC[C@]2(C)[C@@H](C(=O)Cn4cnn(-c5cccc(C#N)c5)c4=O)CC[C@@H]32)C1`, for which the concentration giving a half-maximal response (EC50) in assay [1] worked out at 50 nM; in assay [2], 112 nM. Also, the Emax is 683% in assay [3] and 1050% in assay [4].
